Like-named read-outs stand apart in the source and are kept apart here.
B1: CNTO 328: an anti-IL-6 monoclonal antibody, derived from the CLB-8 anti-IL-6 antibody (antibody, chains of the INN, looked up, V domains shown)
VH: EVQLVESGGKLLKPGGSLKLSCAASGFTFSSFAMSWFRQSPEKRLEWVAEISSGGSYTYYPDTVTGRFTISRDNAKNTLYLEMSSLRSEDTAMYYCARGLWGYYALDYWGQGTSVTVSS
VL: QIVLIQSPAIMSASPGEKVTMTCSASSSVSYMYWYQQKPGSSPRLLIYDTSNLASGVPVRFSGSGSGTSYSLTISRMEAEDAATYYCQQWSGYPYTFGGGTKLEIK

Tests used:
[1] = tested on: DU145 cells; assay: DU145 cell killing, ATPlite assay (ATP production); format: cell-based, human; conditions: for timecourse of cell killing / EC50 / effect on sensitivity / resistance of the cells to mitoxantrone: DU145 cells; for EC50: Homo sapiens, DU-145, read-out: EC50 values for killing by Mitoxantrone, CNTO 328 at 20 μg/mL where combined; for effect on sensitivity / resistance of the cells to mitoxantrone: 48 and 72 hour timepoints
Protocol: DU145 cells were established from a metastatic central nervous system lesion of androgen-independent prostate carcinoma (Stone, K. R. et al. 1978 Int J Cancer 21: 274-81). […] Thus, study of direct interactions of chemotherapy agents and IL6 modulators can be studied on prostate tumor cells in vitro.
DU145 cells were plated at 500 cells/well in a 96 well plate and allowed to adhere for several hours. Treatments were added and plates were incubated at 37° C. for either 24, 48, or 72 hours. […] CNTO 328 was tested at 20 μg/mL and IL-6 was tested at both 10 and 50 ng/mL. Plates were analyzed for ATP production using the ATPlite assay from Perkin Elmer.

[2] = tested on: DU-145 human prostate xenograft; assay: DU-145 human prostate xenograft in nude mice, time to tumor volume of 1000 mm3; format: in vivo; conditions: for % TGD (tumor growth delay): [(T-C)/C]×100, versus PBS Group 1; for tumor growth delay vs. control (in words): monotherapy versus Group 1; for T-C (difference between median TTE of treated versus control group): same dosing, versus PBS Group 1; for Median TTE: time to tumor volume 1000 mm3, CNTO328 10 mg/Kg i.p. biweekly, Mitoxantrone 0.75 mg/Kg i.v. once per D for 5 D, n=8
Excerpt: Nude mice were implanted subcutaneously with 1 mm3 fragments of DU-145 human prostate xenograft tissue. […] Dosing was initiated on Day 1 as follows: […] The study endpoint was the time taken for tumors to reach a volume of 1000 mm3 at which time each animal was euthanized. Days in Progress=56. Calculation using the TTE=time to endpoint are: T−C=difference between median TTE (days) of treated versus control group, TGD=tumor growth delay. % TGD=[(T-C)/C]×100. The Logrank test was used to analyze the significance of the differences between the TTE values of treated and control groups. Two-tailed statistical analyses were conducted at significance level P-0.05. Statistical Significance: ns=not significant, **=P<0.01 compared to group indicated.

[3] = tested on: metastatic HRPC; conditions: docetaxel every 3 weeks; cited from earlier work
[4] = tested on: human prostate tumor; conditions: human prostate tumor-bearing mice; cited from earlier work

Row | Molecule | % TGD (tumor growth delay) [2] [%] | tumor growth delay vs. control (in words) [2] | T-C (difference between median TTE of treated versus control group) [2] [days] | Median TTE [2] [days] | effect on sensitivity / resistance of the cells to mitoxantrone [1] | also measured
1 | O=C1c2c(O)ccc(O)c2C(=O)c2c(NCCNCCO)ccc(NCCNCCO)c21 [Mitoxantrone, 1,4-Dihydroxy-5,8-bis[[2-[(2-hydroxyethyl)amino]ethyl]amino]-9,10-anthracenedione] | 29 | no significant tumor growth delay | 6.2 | 27.7 |  | timecourse of cell killing ([1]; 48 and 72 hours (FIG. 1)): greatest reduction in cell survival; timecourse of cell killing ([1]; 24 hours (FIG. 1)): minimal cell death; EC50 ([1]; 48 Hours): 23 nM; EC50 ([1]; 72 Hours): 10.8 nM; mean body weight nadir ([2]; day 10): −5%
2 | CC(=O)O[C@@]12CO[C@@H]1C[C@H](O)[C@@]1(C)C(=O)[C@H](O)C3=C(C)[C@@H](OC(=O)[C@H](O)[C@@H](NC(=O)OC(C)(C)C)c4ccccc4)C[C@@](O)([C@@H](OC(=O)c4ccccc4)[C@H]21)C3(C)C [docetaxel] |  |  |  |  |  | improvement of survival over the reference M/P regimen [3]: 2-2.5 months
3 | IL-6: 22-27 kDa secreted glycoprotein cytokine, added exogenously |  |  |  |  | did not increase resistance to the effect of mitoxantrone | 
4 | B1 | −21 | no significant tumor growth delay | -4.6 | 16.9 | does not significantly alter the sensitivity of the cells to mitoxantrone | proliferation of the DU145 cells ([1]; agent alone (not shown)): ineffective at reducing proliferation; effect of monotherapy on tumor and survival [4]: block conversion to androgen independent growth, induce tumor apoptosis, and prolong survival

Source: patent US20080081041A1 (priority 2006, published 2008)
